Measurements from ChEMBL document CHEMBL3992523, “Potent Inhibition of Nitric Oxide-Releasing Bifendate Derivatives against Drug-Resistant K562/A02 Cells in Vitro and in Vivo” (J Med Chem, 2017).
Calls of active or inactive are those of the source. No cut-off for these calls is given here.

Columns and labels:
[1] = organism: Homo sapiens; test: Inhibition of NF-kappaB phosphorylation in human K562/A02 cells at 1 uM measured after 48 hrs by Western blot analysis; type: cell-based
[2] = target: RAC-alpha serine/threonine-protein kinase (Homo sapiens) (UniProt P31749); test: Inhibition of AKT phosphorylation in P-gp overexpressing/drug resistant human K562/A02 cells at 8 uM after 24 hrs by Western blot analysis
[3] = test system: Mus musculus; test: Toxicity in BALB/c nude mouse assessed as abnormality in drinking at 1000 mg/kg, iv measured up to 14 days; type: organism-based; details: in vivo, 336 h
[4] = test system: K562/A02; test: Effect on P-gp expression in P-gp overexpressing/drug resistant human K562/A02 cells up to 8 uM by Western blot analysis; type: functional, cell-based
[5] = organism: Homo sapiens; test: Inhibition of ERK phosphorylation in human K562/A02 cells at 1 uM measured after 48 hrs by Western blot analysis; type: cell-based
[6] = test system: K562/A02; test: Anti-proliferative activity against P-gp overexpressing/drug resistant human K562/A02 cells measured after 72 hrs by MTS assay; type: functional, cell-based; details: K562/A02, 72 h
[7] = organism: Homo sapiens; test: Inhibition of NF-kappaB phosphorylation in P-gp overexpressing/drug resistant human K562/A02 cells at 8 uM after 24 hrs by Western blot analysis
[8] = Permeability in human Caco2 cells assessed as concentration ratio of basolateral to apical side at 100 uM measured at 5 mins post dose by HPLC analysis; type: ADME, cell-based; details: caco-2, 5 min
[9] = Resistant factor, ratio of IC50 for P-gp overexpressing/drug resistant human K562/A02 cells to IC50 for human K562 cells; type: functional
[10] = Drug metabolism in P-gp overexpressing/drug resistant human K562/A02 cells assessed as nitric oxide production at 100 uM in presence of hemoglobin measured over 30 to 300 mins by Griess assay; type: ADME, cell-based; details: k562/a02, 100 µM
[11] = test system: K562; test: Effect on rhodamine123 accumulation in human K562 cells at 0.33 to 10 uM measured after 1 hr by flow cytometry; type: functional, cell-based
[12] = organism: Homo sapiens; test: Inhibition of ERK phosphorylation in human K562/A02 cells at 2 uM in presence of hemoglobin measured after 24 hrs by Western blot analysis; type: cell-based
[13] = target: RAC-alpha serine/threonine-protein kinase (Homo sapiens) (UniProt P31749); test: Inhibition of AKT phosphorylation in human K562/A02 cells at 1 uM measured after 48 hrs by Western blot analysis; type: cell-based
[14] = Drug metabolism in P-gp overexpressing/drug resistant human K562/A02 cells assessed as nitric oxide production at 20 uM by DAF-FMDA staining based fluorescent microscopic analysis; type: ADME, cell-based; details: k562/a02, 20 µM, TDE = time-dependent effect
[15] = test system: Mus musculus; test: Toxicity in BALB/c nude mouse assessed as abnormality in eating at 1000 mg/kg, iv measured up to 14 days; type: organism-based; details: in vivo, 336 h
[16] = test system: K562/A02; test: Antitumor activity against P-gp overexpressing/drug resistant human K562/A02 cells xenografted in BALB/c nude mouse assessed as reduction in tumor volume at 120 mg/kg, iv administered every other day for 21 days measured every other day during dosing; type: functional, organism-based
[17] = test system: K562; test: Anti-proliferative activity against human K562 cells measured after 72 hrs by MTS assay; type: functional, cell-based; details: K562, 72 h
[18] = Permeability in human Caco2 cells assessed as concentration ratio of basolateral to apical side at 100 uM measured at 10 mins post dose by HPLC analysis; type: ADME, cell-based; details: caco-2, 10 min
[19] = test system: Mus musculus; test: Toxicity in P-gp overexpressing/drug resistant human K562/A02 cells xenografted BALB/c nude mouse assessed as change in body weight at 120 mg/kg, iv administered every other day for 21 days measured on day 2,4,6,8,10,12,14,16,18,20,22 of dosing; type: organism-based; details: in vivo, 504 h
[20] = test system: Mus musculus; test: Induction of nitration of mitochondrial cytochrome c in tumor of iv dosed BALB/c nude mouse xenografted with P-gp overexpressing/drug resistant human K562/A02 cells administered every other day for 21 days by Western blot analysis; type: functional, organism-based
[21] = organism: Homo sapiens; test: Induction of nitration of P-gp in P-gp overexpressing/drug resistant human K562/A02 cells at 10 uM measured after 24 hrs by Western blot analysis
[22] = Drug metabolism in P-gp overexpressing/drug resistant human K562/A02 cells assessed as nitric oxide production at 20 uM up to 6 hrs by Griess assay; type: ADME, cell-based; details: k562/a02, 6 h
[23] = test system: K562/A02; test: Anti-proliferative activity against P-gp overexpressing/drug resistant human K562/A02 cells assessed as decrease in cell survival at 1 uM in presence of hemoglobin measured after 24 hrs by MTS assay; type: functional, cell-based
[24] = test system: Mus musculus; test: Toxicity in BALB/c nude mouse assessed as change in body weight at 1000 mg/kg, iv measured up to 14 days; type: organism-based; details: in vivo, 336 h
[25] = organism: Homo sapiens; test: Effect on P-gp ATPase activity in human K562/A02 cell membranes assessed as remaining ATP level by measuring relative light units at 40 uM in presence of MgATP measured after 40 mins by luminescence based P-gp-Glo assay (reference value: 216508 +/- 7426 RLU)
[26] = organism: Homo sapiens; test: Induction of nitration of P-gp in P-gp overexpressing/drug resistant human K562/A02 cells at 10 uM in presence of hemoglobin measured after 24 hrs by Western blot analysis
[27] = organism: Homo sapiens; test: Inhibition of ERK phosphorylation in P-gp overexpressing/drug resistant human K562/A02 cells at 8 uM after 24 hrs by Western blot analysis
[28] = Drug metabolism in P-gp overexpressing/drug resistant human K562/A02 cells assessed as nitric oxide production at 100 uM measured at 240 mins by Griess assay; type: ADME, cell-based; details: k562/a02, 4 h
[29] = test system: K562/A02; test: Induction of nitration of mitochondrial cytochrome c in P-gp overexpressing/drug resistant human K562/A02 cells at 10 uM in presence of hemoglobin measured after 24 hrs by Western blot analysis; type: functional, cell-based
[30] = test system: Mus musculus; test: Toxicity in BALB/c nude mouse assessed as effect on survival at 1000 mg/kg, iv measured up to 14 days; type: organism-based; details: in vivo, 336 h
[31] = organism: Homo sapiens; test: Inhibition of P-gp in human K562/A02 cells assessed as increase in intracellular rhodamine123 accumulation at 0.33 to 10 uM measured after 1 hr by flow cytometry; type: cell-based
[32] = target: RAC-alpha serine/threonine-protein kinase (Homo sapiens) (UniProt P31749); test: Inhibition of AKT phosphorylation in human K562/A02 cells at 2 uM in presence of hemoglobin measured after 24 hrs by Western blot analysis; type: cell-based
[33] = test system: K562/A02; test: Antitumor activity against P-gp overexpressing/drug resistant human K562/A02 cells xenografted in BALB/c nude mouse assessed as tumor growth inhibition at 120 mg/kg, iv administered every other day for 21 days measured post last dose relative to control; type: functional; details: 504 h, read-out: TGI
[34] = test system: K562/A02; test: Down regulation of HIF-alpha expression in P-gp overexpressing/drug resistant human K562/A02 cells at 1 uM measured after 48 hrs by Western blot analysis; type: functional, cell-based
[35] = test system: K562/A02; test: Effect on P-gp expression in P-gp overexpressing/drug resistant human K562/A02 cells up to 8 uM by RT-PCR method; type: functional, cell-based
[36] = test system: K562/A02; test: Antitumor activity against P-gp overexpressing/drug resistant human K562/A02 cells xenografted in BALB/c nude mouse assessed as reduction in tumor weight at 120 mg/kg, iv administered every other day for 21 days measured post last dose; type: functional, organism-based
[37] = test system: K562/A02; test: Induction of nitration of mitochondrial cytochrome c in P-gp overexpressing/drug resistant human K562/A02 cells at 10 uM measured after 24 hrs by Western blot analysis; type: functional, cell-based
[38] = organism: Homo sapiens; test: Inhibition of NF-kappaB phosphorylation in human K562/A02 cells at 2 uM in presence of hemoglobin measured after 24 hrs by Western blot analysis; type: cell-based
[39] = test system: K562/A02; test: Down regulation of HIF-alpha expression in P-gp overexpressing/drug resistant human K562/A02 cells at 8 uM after 24 hrs by Western blot analysis; type: functional, cell-based
[40] = test system: K562/A02; test: Down regulation of HIF-alpha expression in human K562/A02 cells at 2 uM in presence of hemoglobin measured after 24 hrs by Western blot analysis; type: functional, cell-based

Chain of RAC-alpha serine/threonine-protein kinase (Homo sapiens) (P31749 whole entry): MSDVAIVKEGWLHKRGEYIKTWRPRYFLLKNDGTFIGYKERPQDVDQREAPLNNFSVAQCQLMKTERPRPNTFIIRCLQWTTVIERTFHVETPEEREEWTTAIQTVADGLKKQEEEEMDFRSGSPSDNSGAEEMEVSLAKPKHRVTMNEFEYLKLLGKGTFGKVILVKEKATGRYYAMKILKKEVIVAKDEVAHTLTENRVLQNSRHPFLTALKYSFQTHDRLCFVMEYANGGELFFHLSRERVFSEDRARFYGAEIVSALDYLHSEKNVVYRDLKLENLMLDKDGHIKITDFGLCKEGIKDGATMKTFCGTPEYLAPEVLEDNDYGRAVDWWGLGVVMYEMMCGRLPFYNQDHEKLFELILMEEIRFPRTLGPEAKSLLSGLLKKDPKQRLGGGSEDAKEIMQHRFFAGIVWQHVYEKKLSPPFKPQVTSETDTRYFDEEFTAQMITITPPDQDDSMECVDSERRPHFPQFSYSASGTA

COC(=O)c1cc(OC)c2c(c1-c1c(C(=O)OC3CCN(CC(=O)OCCCCOc4no[n+]([O-])c4S(=O)(=O)c4ccccc4)CC3)cc(OC)c3c1OCO3)OCO2
inhibition [1]: Active
inhibition [2]: Active
Activity [3]: Non-Toxic
Activity [4]: inactive
inhibition [5]: Active
IC50 [6]: 550 nM
inhibition [7]: Active
Ratio [8]: 0.14
Ratio IC50 [9]: 0.8
Drug metabolism [10]: Metabolite_Notdetected
Activity [11]: inactive
inhibition [12]: inactive
inhibition [13]: Active
Drug metabolism [14]: Tde
Activity [15]: Non-Toxic
Activity [16]: Active
IC50 [17]: 690 nM
Ratio [18]: 0.53
Activity [19]: Non-Toxic
Activity [20]: Dose-dependent effect
Activity [21]: Active
Drug metabolism [22]: Metabolite_Detected
Activity [23]: inactive
Activity [24]: Non-Toxic
Activity [25]: 241000 RLU
Activity [26]: inactive
inhibition [27]: Active
Drug metabolism [28]: Metabolite_Detected
Activity [29]: inactive
Activity [30]: Non-Toxic
inhibition [31]: Active
inhibition [32]: inactive
inhibition in vivo at 120 mg/kg [33]: 51.4%
Activity [34]: Active
Activity [35]: inactive
Activity [36]: Active
Activity [37]: Active
inhibition [38]: inactive
Activity [39]: Active
Activity [40]: inactive
